According to patent US8778975B2, “Helicobacter pylori eradicating agent having inhibitory activity on gastric acid secretion” (Link Geonomics, Inc., priority 2006, dated 2014):
Values after ≈ are worked out from the molar mass of the structure shown. Values joined by “and” are separate entries in the source; they are usually repeats but may differ in a detail not shown here. Equal values may be shown once. Read-outs that look alike come from different tables or passages of the source.

How the values were obtained:
[1] = test system: Helicobacter pylori standard strain ATCC 43504; test: Antibacterial potency test (MIC), Columbia agar medium, Pharmacological Test Example 1; type: cell-based
Description: A test was conducted to see whether there is a difference in the anti-Helicobacter pylori activity depending on the number of carbon atoms of the linear alkyl group for a substituent at the 4-position of the pyridine ring.
For the bacterium Helicobacter pylori, a standard strain ATCC 43504 was used to perform in vitro tests in Columbia agar medium. Each of the specimens was dissolved in a 1% DMSO solution, and the bacteria were cultured at 37° C. and pH 7.0 for 3 days. On the 4th day, the minimum growth inhibitory concentration (MIC, μg/ml) was determined.

[2] = test system: Helicobacter pylori bacteria (ATCC 43504); test: Antiulcer action and bacteria eradicating action in Helicobacter pylori-infected Mongolian gerbils; type: in vivo; conditions: for Number of Bacteria (average) (log CFU): gastric mucosa; for responders at 10 mg/kg / responders at 30 mg/kg: Helicobacter pylori
Description: Mongolian gerbils were experimentally infected with Helicobacter pylori bacteria, and the antiulcer action and the Helicobacter pylori bacteria eradicating action of the compounds of the present invention were tested.
Male Mongolian gerbils (30 to 40 g), five animals in each group, were orally inoculated with Helicobacter pylori bacteria (ATCC 43504) at 1.6×10^7 CFU/0.5 ml/mouse, and bred for one week, and then drug was administered two times a day for two weeks. Thereafter, the […] were bred for three weeks, and then the rats were fasted for 18 hours and subjected to abdominal section, followed by autopsy. The severity of gastric ulcer, the number of Helicobacter pylori bacteria in the gastric mucosa, and the antibody titer were measured.

[3] = ATCC43504, 72 h, ATCC 43504, 37° C., pH 7.0, 3 days, read-out: MIC
[4] = ATCC43504, Table 8 summary, strain not stated, read-out: Anti-HP activity (MIC: μg/mL)
[5] = 30 mg/kg, two times a day for two weeks
[6] = ATCC43504, 336 h, 30 mg/kg, two times a day for two weeks, read-out: Eradication rate (%)
[7] = ATCC43504, Table 8, amount of administration (mg) 30, read-out: HP eradication based on Mongolian gerbil infection model: Eradication rate (%)

SMILES	MIC [1, 3]	MIC [1, 4]	Antibody titer (average) ([2]; 10 mg/kg)	Number of Bacteria (average) (log CFU) ([2]; 10 mg/kg)	Number of Ulcers discovered ([2]; 10 mg/kg, two times a day for two weeks)	Antibody titer (average) ([2]; 30 mg/kg)	Number of Bacteria (average) (log CFU) ([2]; 30 mg/kg)	Number of Ulcers discovered [2, 5]	responders at 10 mg/kg ([2]; ATCC43504, 336 h, 10 mg/kg, two times a day for two weeks, read-out: Eradication rate (%))	responders at 30 mg/kg [2, 6]	responders at 10 mg/kg ([2]; ATCC43504, Table 8, amount of administration (mg) 10, read-out: HP eradication based on Mongolian gerbil infection model: Eradication rate (%))	responders at 30 mg/kg [2, 7]
CCCCCOc1ccnc(CSc2nc3ccccc3[nH]2)c1C [Example 1, 2-[(4-n-pentyloxy-3-methylpyridin-2-yl)-methylthio]-1H-benzimidazole]	0.1 µg/mL (≈ 0.293 µM)	0.1 µg/mL (≈ 0.293 µM)	0.07	<3 log CFU	inhibited generation of ulcer and 0/5	0.05	<3 log CFU	0/5	100%	100%	100%	–
CCCCCCOc1ccnc(CSc2nc3ccccc3[nH]2)c1C [Example 2, 2-[(4-n-hexyloxy-3-methylpyridin-2-yl)-methylthio]-1H-benzimidazole]	0.1 µg/mL (≈ 0.281 µM)	0.1 µg/mL (≈ 0.281 µM)	–	–	–	0.17	<3 log CFU	0/5	–	100%	–	100%
CCCCCCCOc1ccnc(CSc2nc3ccccc3[nH]2)c1C [Example 3, 2-[(4-n-heptyloxy-3-methylpyridin-2-yl)-methylthio]-1H-benzimidazole]	0.1 µg/mL (≈ 0.271 µM)	0.1 µg/mL (≈ 0.271 µM)	–	–	–	0.22	<3 log CFU	0/5	–	100%	–	100%
